According to US20230013669A1, “Antibacterial Treatment Using a Cannabinoid and an Active Agent” (priority 2019, published 2023):
Values joined by “and” are separate entries in the source; they are usually repeats but may differ in a detail not shown here. Identical values can stand only once. Like-named read-outs stand apart in the source and are kept apart here.

Key:
Assay in all cases: Synergy of cannabidiol with cell-wall disrupting agent (CBD MIC in combination, FICI)
Type in all cases: cell-based
[1] = tested on: Pseudomonas aeruginosa ATCC 27853 (GN_042); settings: for FICI: calculated using MIC of 256 μg/mL for cannabidiol; for MIC: Pseudomonas aeruginosa
Description: (§1) The compounds were stored short term at 4° C.
(§2) Analysis was performed using Microsoft Excel.

[2] = tested on: Acinetobacter baumannii 03.021.1 (GN_039), Colistin resistant; settings: for MIC: Acinetobacter baumannii
Description: as §1, §2

[3] = tested on: Klebsiella pneumoniae BAA-2146 (GN_045), NDM-1; settings: for MIC: Klebsiella pneumoniae
Description: as §1, §2

[4] = Example 9, GN_039, listed as CBD

C=C(C)C1CCC(C)=CC1c1c(O)cc(CCCCC)cc1O (stereo not drawn) [Cannabidiol, 2-[3-methyl-6-(1-methylethenyl)-2-cyclohexen-1-yl]-5-pentyl-1,3-benzenediol]
CBD MIC with Ceftazidime ([1]; Ceftazidime at 1 μg/mL (Table 66), Pseudomonas aeruginosa ATCC 27853): >32 µg/mL | CBD MIC with Ceftazidime ([1]; Ceftazidime at 2 μg/mL (Table 66), Pseudomonas aeruginosa ATCC 27853): 0.001 µg/mL | CBD MIC with Ceftazidime ([1]; Ceftazidime at 4 μg/mL (Table 66), Pseudomonas aeruginosa ATCC 27853): 0.001 µg/mL | CBD MIC with Ceftazidime ([1]; Ceftazidime at […] (Table 66), Pseudomonas aeruginosa ATCC 27853): >32 µg/mL | CBD MIC with Colistin ([1]; Colistin at 1 μg/mL, Pseudomonas aeruginosa ATCC 27853): 0.001 µg/mL | activity of cannabidiol in combination with Polymyxin B ([1]; Example 1): effective | Average FICI score ([1]; Example 1, GN_042, cannabidiol + MCC_006636 (Polymyxin B)): 0.265 | Synergy ([1]; Example 1, GN_042, cannabidiol + MCC_006636 (Polymyxin B), synergy when FICI≤0.5): YES | activity of cannabidiol combined with Polymyxin B ([1]; Example 6): effective | CBD MIC with Polymyxin B at concentration 0.015625 μg/mL ([1]; Example 6, GN_042): >256 µg/mL | CBD MIC with Polymyxin B at concentration 0.03125 μg/mL ([1]; Example 6, GN_042): >256 µg/mL | CBD MIC with Polymyxin B at concentration 0.0625 μg/mL ([1]; Example 6, GN_042): >256 µg/mL | CBD MIC with Polymyxin B at concentration 0.25 μg/mL ([1]; Example 6, GN_042): >256 µg/mL | CBD MIC with Polymyxin B at concentration […] ([1]; Example 6, GN_042): >256 µg/mL | CBD MIC with Polymyxin B at concentration 0.5 μg/mL ([1]; Example 6, GN_042, listed as CBD): 2 µg/mL and 4 µg/mL | activity of cannabidiol combined with ticarcillin ([1]; Example 13): effective | activity of cannabidiol combined with ceftazidime ([1]; Example 16): effective | activity of cannabidiol combined with aztreonam ([1]; Example 18): effective | activity of cannabidiol combined with octapeptin C4 ([1]; Example 21): effective | activity of cannabidiol in combination with MCC_8980 ([1]; Example 24): effective | FICI range ([1]; Pseudomonas aeruginosa ATCC 27853, CBD with FADDI-287, MIC table (Table 95), listed as CBD): 0.53-4 and 0.56-4 | FICI range ([1]; Pseudomonas aeruginosa ATCC 27853, CBD with FADDI-287, Synergy table (Table 97)): No Synergy | FICI range ([1]; Pseudomonas aeruginosa ATCC 27853, CBD with MCC_8980, MIC table (Table 99), listed as CBD): 0.16-1.06 and 0.19-1.06 | FICI range ([1]; Pseudomonas aeruginosa ATCC 27853, CBD with MCC_8980, Synergy table (Table 101), listed as CBD): 0.16-0.25 and 0.19-0.26 | FICI range ([1]; Pseudomonas aeruginosa ATCC 27853, CBD with Spero Potentiator SPR741, MIC table (Table 91)): 1.01-1.25 | FICI range ([1]; Pseudomonas aeruginosa ATCC 27853, CBD with Spero Potentiator SPR741, Synergy table (Table 93)): No Synergy | FICI range ([1]; Pseudomonas aeruginosa ATCC 27853, CBD with Spero SPR206, Synergy table): No Synergy | CBD MIC with FADDI-287 ([1]; Pseudomonas aeruginosa ATCC 27853, FADDI-287 at 0.5 μg/mL, listed as CBD): 16 µg/mL | CBD MIC with MCC_8980 ([1]; Pseudomonas aeruginosa ATCC 27853, MCC_8980 at 8 μg/mL, listed as CBD): 16 µg/mL | CBD MIC with MCC_8980 ([1]; Pseudomonas aeruginosa ATCC 27853, MCC_8980 at 16 μg/mL, listed as CBD): 2 µg/mL | FICI ([1]; Pseudomonas aeruginosa ATCC 27853, cannabidiol with FADDI-287 at 0.25 μg/mL): 1.25 | FICI ([1]; Pseudomonas aeruginosa ATCC 27853, cannabidiol with FADDI-287 at 0.5 μg/mL): 0.5312 and 0.5625 | FICI ([1]; Pseudomonas aeruginosa ATCC 27853, cannabidiol with FADDI-287 at 1 μg/mL): 1 | FICI ([1]; Pseudomonas aeruginosa ATCC 27853, cannabidiol with FADDI-287 at 2 μg/mL): 2 | FICI ([1]; Pseudomonas aeruginosa ATCC 27853, cannabidiol with FADDI-287 at 4 μg/mL): 4 | FICI ([1]; Pseudomonas aeruginosa ATCC 27853, cannabidiol with MCC_8980 at 0.5 μg/mL): 1.008 | FICI ([1]; Pseudomonas aeruginosa ATCC 27853, cannabidiol with MCC_8980 at 1 μg/mL): 1.016 | FICI ([1]; Pseudomonas aeruginosa ATCC 27853, cannabidiol with MCC_8980 at 4 μg/mL): 1.0625 | FICI ([1]; Pseudomonas aeruginosa ATCC 27853, cannabidiol with MCC_8980 at 8 μg/mL): 0.1562 and 0.1875 | FICI ([1]; Pseudomonas aeruginosa ATCC 27853, cannabidiol with MCC_8980 at 16 μg/mL): 0.2539 and 0.2578 | FICI ([1]; Pseudomonas aeruginosa ATCC 27853, cannabidiol with SPR741 at 0.5 μg/mL): 1.008 | FICI ([1]; Pseudomonas aeruginosa ATCC 27853, cannabidiol with SPR741 at 1 μg/mL): 1.016 | FICI ([1]; Pseudomonas aeruginosa ATCC 27853, cannabidiol with SPR741 at 4 μg/mL): 1.0625 | FICI ([1]; Pseudomonas aeruginosa ATCC 27853, cannabidiol with SPR741 at 16 μg/mL): 1.25 | MIC ([1]; ATCC27853, MCC_6442 at 4 μg/mL, Pseudomonas aeruginosa ATCC 27853, read-out: CBD MIC with MCC_6442): 0.001 µg/mL | MIC ([1]; ATCC27853, Octapeptin C4 at 4 μg/mL, read-out: CBD MIC with Octapeptin C4): 0.001 µg/mL | MIC ([1]; ATCC27853, Pseudomonas aeruginosa ATCC 27853, FADDI-287 at 0.5 μg/mL, read-out: CBD MIC with FADDI-287): 8 µg/mL | MIC ([1]; ATCC27853, Pseudomonas aeruginosa ATCC 27853, FADDI-287 at 1 μg/mL, read-out: CBD MIC with FADDI-287): 0.001 µg/mL | MIC ([1]; ATCC27853, Pseudomonas aeruginosa ATCC 27853, FADDI-287 at 2 μg/mL, read-out: CBD MIC with FADDI-287): 0.001 µg/mL | MIC ([1]; ATCC27853, Pseudomonas aeruginosa ATCC 27853, FADDI-287 at 4 μg/mL, read-out: CBD MIC with FADDI-287): 0.001 µg/mL | MIC ([1]; ATCC27853, Pseudomonas aeruginosa ATCC 27853, MCC_8980 at 8 μg/mL, read-out: CBD MIC with MCC_8980): 8 µg/mL | MIC ([1]; ATCC27853, Pseudomonas aeruginosa ATCC 27853, MCC_8980 at 16 μg/mL, read-out: CBD MIC with MCC_8980): 1 µg/mL | MIC ([1]; ATCC27853, Spero SPR206 at 0.25 μg/mL, 1st of 3 experiments, read-out: CBD MIC with Spero SPR206): > 256 µg/mL | MIC ([1]; ATCC27853, Spero SPR206 at 0.25 μg/mL, 3rd of 3 experiments, read-out: CBD MIC with Spero SPR206): > 256 µg/mL | MIC ([1]; ATCC27853, Spero SPR206 at 0.5 μg/mL, 1st of 3 experiments, read-out: CBD MIC with Spero SPR206): > 256 µg/mL | MIC ([1]; ATCC27853, Spero SPR206 at 0.5 μg/mL, 3rd of 3 experiments, read-out: CBD MIC with Spero SPR206): > 256 µg/mL | MIC ([1]; ATCC27853, Spero SPR206 at 1 μg/mL, 1st of 3 experiments, read-out: CBD MIC with Spero SPR206): 0.001 µg/mL | MIC ([1]; ATCC27853, Spero SPR206 at 1 μg/mL, 3rd of 3 experiments, read-out: CBD MIC with Spero SPR206): > 256 µg/mL | MIC ([1]; ATCC27853, Spero SPR206 at 2 μg/mL, 1st of 3 experiments, read-out: CBD MIC with Spero SPR206): 0.001 µg/mL | MIC ([1]; ATCC27853, Spero SPR206 at 2 μg/mL, 3rd of 3 experiments, read-out: CBD MIC with Spero SPR206): > 256 µg/mL | MIC ([1]; ATCC27853, Spero SPR206 at 4 μg/mL, 1st of 3 experiments, read-out: CBD MIC with Spero SPR206): 0.001 µg/mL | MIC ([1]; ATCC27853, Spero SPR206 at 4 μg/mL, 3rd of 3 experiments, read-out: CBD MIC with Spero SPR206): > 256 µg/mL | CBD MIC with Ticarcillin ([1]; Ticarcillin at 16 μg/mL, Pseudomonas aeruginosa ATCC 27853): 0.001 µg/mL | CBD MIC with Ticarcillin ([1]; Ticarcillin at 32 μg/mL, Pseudomonas aeruginosa ATCC 27853): 0.001 µg/mL | CBD MIC with Ticarcillin ([1]; Ticarcillin at 64 μg/mL, Pseudomonas aeruginosa ATCC 27853): 0.001 µg/mL | MIC ([2]; read-out: CBD MIC with MCC_00636 at concentration 0.25 μg/mL, Example 8, GN_039): 4 µg/mL | MIC ([2]; read-out: CBD MIC with MCC_00636 at concentration 0.5 μg/mL, Example 8, GN_039): 0.000977 µg/mL | MIC ([2]; read-out: CBD MIC with MCC_00636 at concentration 1 μg/mL, Example 8, GN_039): 0.000977 µg/mL | MIC ([2]; read-out: CBD MIC with MCC_00636 at concentration […], Example 8, GN_039): 4 µg/mL | MIC ([2]; read-out: CBD MIC with MCC_09222 at concentration 16 μg/mL, Example 9, GN_039): 1 µg/mL | MIC ([2]; read-out: CBD MIC with MCC_09222 at concentration 32 μg/mL, Example 9, GN_039): 0.5 µg/mL | MIC ([2]; read-out: CBD MIC with MCC_09222 at concentration 64 μg/mL, Example 9, GN_039): 0.000977 µg/mL | MIC ([2]; read-out: CBD MIC with MCC_09222 at concentration 128 μg/mL, Example 9, GN_039): 0.000977 µg/mL | cannabidiol combined with Polymyxin B: synergy ([2]; Example 8): synergy | cannabidiol in combination with MCC_09222: synergy ([2]; Example 9): synergistic effect | CBD MIC with MCC_09222 at concentration 16 μg/mL [2, 4]: 2 µg/mL | CBD MIC with MCC_09222 at concentration 32 μg/mL [2, 4]: 1 µg/mL | cannabidiol in combination with MCC_09222: synergy ([3]; Example 9): synergistic effect | CBD MIC with MCC_09222 at concentration 16 μg/mL ([3]; Example 9, GN_045, listed as CBD): 2 µg/mL | MIC ([3]; BAA2146, read-out: CBD MIC with MCC_09222 at concentration 8 μg/mL, Example 9, GN_045): 16 µg/mL | MIC ([3]; BAA2146, read-out: CBD MIC with MCC_09222 at concentration 16 μg/mL, Example 9, GN_045): 4 µg/mL | MIC ([3]; BAA2146, read-out: CBD MIC with MCC_09222 at concentration 32 μg/mL, Example 9, GN_045): 2 µg/mL | MIC ([3]; BAA2146, read-out: CBD MIC with MCC_09222 at concentration 64 μg/mL, Example 9, GN_045): 2 µg/mL | MIC ([3]; BAA2146, read-out: CBD MIC with MCC_09222 at concentration 128 μg/mL, Example 9, GN_045): 0.000977 µg/mL
